Paper PMC6032158, “Structure–Activity Relationship of Piplartine and Synthetic Analogues against Schistosoma mansoni and Cytotoxicity to Mammalian Cells” (International Journal of Molecular Sciences, 2018)
“Also recorded” adds a separate entry of the source.

Legend:
[1] = tested on: mouse BALB/cN macrophage (J774A.1) cell line; assay: Cell viability by flow cytometry in macrophages; conditions: 24 h, 25, 100 and 400 µg/mL, vs DMEM control
[2] = tested on: murine fibroblast (NIH-3T3) cells; assay: MTT cytotoxicity assay in murine fibroblasts; assay type: cell-based
Experimental: Next, the medium was removed and various concentrations (25–800 µg/mL) of samples reconstituted in 3% DMSO were applied. DMSO (3%) was used as a control. The plates were incubated for 24 h. Next, 15 µL of MTT solution (5 mg/mL in phosphate buffer) was added to each well and the plates were incubated for 2 h. Medium was discarded and 100 µL of DMSO was added to each well. Absorbance was determined using a spectrophotometer with a microplate reader at 595 nm (Molecular Devices Corporation, Sunnyvale, CA, USA).

[3] = tested on: 49-day-old S. mansoni adult worms; assay: In vitro experiments with adult worms of S. mansoni (mortality, motor activity); assay type: cell-based, Schistosoma mansoni; conditions: for Dead Worms (%) F / Motor Activity Reduction (%) Significant F / Motor Activity Reduction (%) Slight F: female worms; for Dead Worms (%) M / Motor Activity Reduction (%) Significant M / Motor Activity Reduction (%) Slight M: male worms
Experimental: The Belo Horizonte (BH) strain of S. mansoni was maintained in Biomphalaria glabrata snails and Mesocricetus auratus hamsters at the Adolfo Lutz Institute (São Paulo, Brazil) according to standard procedures. Detailed methods for the infection of molluscs and hamsters, as well as for the recovery of parasites, were as described previously. Briefly, the intermediate host snails were exposed to light for approximately 3 h and cercariae of S. mansoni were subsequently harvested. […] All animals were handled in strict accordance with good animal practice as defined by the Animal Use Ethics Committee. The preparations and culture of schistosomes was performed as previously described. Briefly, hamsters were killed 49 days after infection for the recovery of adult schistosomes. Next, fresh adult worm pairs (male and female) were washed and placed in a 24-well culture plate (TPP, St. […] Adult schistosomes were maintained continuously in medium (with or without drugs) for 96 h as described below. In vitro assays in S. mansoni adults were performed with mated males and females. The worm pairs obtained from the infusion hamsters were washed twice with RPMI 1640 medium containing 200 U/mL penicillin, 200 μg/mL streptomycin and 2 μg/mL amphotericin B (Vitrocell, Campinas, Brazil). The mated parasites were then transferred into 24-well cell culture plates (TPP, St. […] Cultures of adult worms were monitored by microscopy or magnifying glass. The effect of the drug was assessed with emphasis on changes in worm motor activity and death of worms as previously described.

In the case of `COc1cc(/C=C/C(=O)N2CCCC2)cc(OC)c1OC` [Compound 1G], the “effect on J774A.1 cell viability (in words)” value [1] is reported as “significantly altered (p < 0.05) cell viability in comparison with the negative control, but not in a toxic manner”, the “effect on NIH-3T3 cell viability (in words)” value ([2]; MTT, 24 h exposure, 25 to 800 µg/mL) is reported as “considerable reduction in cell viability at concentrations of 400 and 800 μg/mL; also recorded: showed toxicity at 200, 400 and 800 μg/mL” and the Emax at 800 µg/mL ([2]; Mus musculus, NIH3T3, 24 h, decrease in cell viability at the maximum concentration tested (800 μg/mL), NIH-3T3, 24 h) is reported as 95.69 ± 0.79%. For the same compound, the “Dead Worms (%) F” value ([3]; 5 µM, 24 h) was 0%, the “Motor Activity Reduction (%) Significant F” value ([3]; 5 µM, 24 h) was 0% and the “Motor Activity Reduction (%) Slight F” value ([3]; 5 µM, 24 h) was 0%. The “Dead Worms (%) M” value ([3]; 5 µM, 24 h) was 0%, the “Motor Activity Reduction (%) Significant M” value ([3]; 5 µM, 24 h) was 0% and the “Motor Activity Reduction (%) Slight M” value ([3]; 5 µM, 24 h) was 0%. The “Dead Worms (%) F” value ([3]; 5 µM, 48 h) was 0%, the “Motor Activity Reduction (%) Significant F” value ([3]; 5 µM, 48 h) was 0% and the “Motor Activity Reduction (%) Slight F” value ([3]; 5 µM, 48 h) was 0%. The “Dead Worms (%) M” value ([3]; 5 µM, 48 h) was 0%, the “Motor Activity Reduction (%) Significant M” value ([3]; 5 µM, 48 h) was 0% and the “Motor Activity Reduction (%) Slight M” value ([3]; 5 µM, 48 h) was 0%. The “Dead Worms (%) F” value ([3]; 5 µM, 72 h) was 0%, the “Motor Activity Reduction (%) Significant F” value ([3]; 5 µM, 72 h) was 0% and the “Motor Activity Reduction (%) Slight F” value ([3]; 5 µM, 72 h) was 0%. The “Dead Worms (%) M” value ([3]; 5 µM, 72 h) was 0%, the “Motor Activity Reduction (%) Significant M” value ([3]; 5 µM, 72 h) was 0% and the “Motor Activity Reduction (%) Slight M” value ([3]; 5 µM, 72 h) was 0%. For the same compound, the “Dead Worms (%) F” value ([3]; 5 µM, 96 h) was 0%, the “Motor Activity Reduction (%) Significant F” value ([3]; 5 µM, 96 h) was 0% and the “Motor Activity Reduction (%) Slight F” value ([3]; 5 µM, 96 h) was 0%. The “Dead Worms (%) M” value ([3]; 5 µM, 96 h) was 0%, the “Motor Activity Reduction (%) Significant M” value ([3]; 5 µM, 96 h) was 0% and the “Motor Activity Reduction (%) Slight M” value ([3]; 5 µM, 96 h) was 0%. For the same compound, the “Dead Worms (%) F” value ([3]; 10 µM, 24 h) was 0%, the “Motor Activity Reduction (%) Significant F” value ([3]; 10 µM, 24 h) was 0% and the “Motor Activity Reduction (%) Slight F” value ([3]; 10 µM, 24 h) was 0%. For the same compound, the “Dead Worms (%) M” value ([3]; 10 µM, 24 h) was 0%, the “Motor Activity Reduction (%) Significant M” value ([3]; 10 µM, 24 h) was 0% and the “Motor Activity Reduction (%) Slight M” value ([3]; 10 µM, 24 h) was 0%. For the same compound, the “Dead Worms (%) F” value ([3]; 10 µM, 48 h) was 0%, the “Motor Activity Reduction (%) Significant F” value ([3]; 10 µM, 48 h) was 0% and the “Motor Activity Reduction (%) Slight F” value ([3]; 10 µM, 48 h) was 0%. For the same compound, the “Dead Worms (%) M” value ([3]; 10 µM, 48 h) was 0%, the “Motor Activity Reduction (%) Significant M” value ([3]; 10 µM, 48 h) was 0% and the “Motor Activity Reduction (%) Slight M” value ([3]; 10 µM, 48 h) was 0%. For the same compound, the “Dead Worms (%) F” value ([3]; 10 µM, 72 h) was 0%, the “Motor Activity Reduction (%) Significant F” value ([3]; 10 µM, 72 h) was 0% and the “Motor Activity Reduction (%) Slight F” value ([3]; 10 µM, 72 h) was 0%. The “Dead Worms (%) M” value ([3]; 10 µM, 72 h) was 0%, the “Motor Activity Reduction (%) Significant M” value ([3]; 10 µM, 72 h) was 0% and the “Motor Activity Reduction (%) Slight M” value ([3]; 10 µM, 72 h) was 0%. The “Dead Worms (%) F” value ([3]; 10 µM, 96 h) was 0%, the “Motor Activity Reduction (%) Significant F” value ([3]; 10 µM, 96 h) was 0% and the “Motor Activity Reduction (%) Slight F” value ([3]; 10 µM, 96 h) was 0%. For the same compound, the “Dead Worms (%) M” value ([3]; 10 µM, 96 h) was 0%, the “Motor Activity Reduction (%) Significant M” value ([3]; 10 µM, 96 h) was 0% and the “Motor Activity Reduction (%) Slight M” value ([3]; 10 µM, 96 h) was 0%. For the same compound, the “Dead Worms (%) F” value ([3]; 25 µM, 24 h) was 0%, the “Motor Activity Reduction (%) Significant F” value ([3]; 25 µM, 24 h) was 0% and the “Motor Activity Reduction (%) Slight F” value ([3]; 25 µM, 24 h) was 0%. For the same compound, the “Dead Worms (%) M” value ([3]; 25 µM, 24 h) was 0%, the “Motor Activity Reduction (%) Significant M” value ([3]; 25 µM, 24 h) was 0% and the “Motor Activity Reduction (%) Slight M” value ([3]; 25 µM, 24 h) was 0%. For the same compound, the “Dead Worms (%) F” value ([3]; 25 µM, 48 h) was 0%, the “Motor Activity Reduction (%) Significant F” value ([3]; 25 µM, 48 h) was 0% and the “Motor Activity Reduction (%) Slight F” value ([3]; 25 µM, 48 h) was 0%. The “Dead Worms (%) M” value ([3]; 25 µM, 48 h) was 0%, the “Motor Activity Reduction (%) Significant M” value ([3]; 25 µM, 48 h) was 0% and the “Motor Activity Reduction (%) Slight M” value ([3]; 25 µM, 48 h) was 0%. For the same compound, the “Dead Worms (%) F” value ([3]; 25 µM, 72 h) was 0%, the “Motor Activity Reduction (%) Significant F” value ([3]; 25 µM, 72 h) was 0% and the “Motor Activity Reduction (%) Slight F” value ([3]; 25 µM, 72 h) was 0%. For the same compound, the “Dead Worms (%) M” value ([3]; 25 µM, 72 h) was 0%, the “Motor Activity Reduction (%) Significant M” value ([3]; 25 µM, 72 h) was 0% and the “Motor Activity Reduction (%) Slight M” value ([3]; 25 µM, 72 h) was 0%. For the same compound, the “Dead Worms (%) F” value ([3]; 25 µM, 96 h) was 0%, the “Motor Activity Reduction (%) Significant F” value ([3]; 25 µM, 96 h) was 0% and the “Motor Activity Reduction (%) Slight F” value ([3]; 25 µM, 96 h) was 0%. For the same compound, the “Dead Worms (%) M” value ([3]; 25 µM, 96 h) was 0%, the “Motor Activity Reduction (%) Significant M” value ([3]; 25 µM, 96 h) was 0% and the “Motor Activity Reduction (%) Slight M” value ([3]; 25 µM, 96 h) was 0%. The “Dead Worms (%) F” value ([3]; 50 µM, 24 h) was 0%, the “Motor Activity Reduction (%) Significant F” value ([3]; 50 µM, 24 h) was 0% and the “Motor Activity Reduction (%) Slight F” value ([3]; 50 µM, 24 h) was 0%. For the same compound, the “Dead Worms (%) M” value ([3]; 50 µM, 24 h) was 0%, the “Motor Activity Reduction (%) Significant M” value ([3]; 50 µM, 24 h) was 0% and the “Motor Activity Reduction (%) Slight M” value ([3]; 50 µM, 24 h) was 0%. For the same compound, the “Dead Worms (%) F” value ([3]; 50 µM, 48 h) was 0%, the “Motor Activity Reduction (%) Significant F” value ([3]; 50 µM, 48 h) was 0% and the “Motor Activity Reduction (%) Slight F” value ([3]; 50 µM, 48 h) was 0%. The “Dead Worms (%) M” value ([3]; 50 µM, 48 h) was 0%, the “Motor Activity Reduction (%) Significant M” value ([3]; 50 µM, 48 h) was 0% and the “Motor Activity Reduction (%) Slight M” value ([3]; 50 µM, 48 h) was 0%. For the same compound, the “Dead Worms (%) F” value ([3]; 50 µM, 72 h) was 0%, the “Motor Activity Reduction (%) Significant F” value ([3]; 50 µM, 72 h) was 0% and the “Motor Activity Reduction (%) Slight F” value ([3]; 50 µM, 72 h) was 0%. For the same compound, the “Dead Worms (%) M” value ([3]; 50 µM, 72 h) was 0%, the “Motor Activity Reduction (%) Significant M” value ([3]; 50 µM, 72 h) was 0% and the “Motor Activity Reduction (%) Slight M” value ([3]; 50 µM, 72 h) was 0%. The “Dead Worms (%) F” value ([3]; 50 µM, 96 h) was 0%, the “Motor Activity Reduction (%) Significant F” value ([3]; 50 µM, 96 h) was 0% and the “Motor Activity Reduction (%) Slight F” value ([3]; 50 µM, 96 h) was 0%. The “Dead Worms (%) M” value ([3]; 50 µM, 96 h) was 0%, the “Motor Activity Reduction (%) Significant M” value ([3]; 50 µM, 96 h) was 0% and the “Motor Activity Reduction (%) Slight M” value ([3]; 50 µM, 96 h) was 0%. For the same compound, the “activity against S. mansoni adult worms (in words)” value ([3]; analogues 50, 25, 10 and 5 μM, piplartine 5 and 10 μM, up to 96 h) was “did not exhibit antischistosome activity at the concentrations tested”.

`O=C(C1CCCCC1)N1CC(=O)N2CCc3ccccc3C2C1` (stereo not shown) [Praziquantel, praziquantel, reference compound] was tested, and the “Dead Worms (%) M” value ([3]; 2 µM, 24 h) was 100%, the “Motor Activity Reduction (%) Significant M” value ([3]; 2 µM, 24 h) was 100% and the “Motor Activity Reduction (%) Slight M” value ([3]; 2 µM, 24 h) was 0%. For the same compound, the “Dead Worms (%) M” value ([3]; 2 µM, 48 h) was 100%, the “Motor Activity Reduction (%) Significant M” value ([3]; 2 µM, 48 h) was 100% and the “Motor Activity Reduction (%) Slight M” value ([3]; 2 µM, 48 h) was 0%. The “Dead Worms (%) M” value ([3]; 2 µM, 72 h) was 100%, the “Motor Activity Reduction (%) Significant M” value ([3]; 2 µM, 72 h) was 100% and the “Motor Activity Reduction (%) Slight M” value ([3]; 2 µM, 72 h) was 0%. The “Dead Worms (%) M” value ([3]; 2 µM, 96 h) was 100%, the “Motor Activity Reduction (%) Significant M” value ([3]; 2 µM, 96 h) was 100% and the “Motor Activity Reduction (%) Slight M” value ([3]; 2 µM, 96 h) was 0%.
